Results as given in ChEMBL document CHEMBL6134931, “Lysine-Targeted Covalent Strategy Leading to the Discovery of Novel Potent PROTAC-Based PI3Kδ Degraders” (J Med Chem, 2025).
The source made the active and inactive calls. The rule behind the calls is not given here.

Tests used:
SU-DHL-6 [1] = assay: Antiproliferative activity against human SU-DHL-6 cells assessed as cell growth inhibition incubated for 72 hrs by MTT assay; assay type: functional
SU-DHL-6 [2] = assay: Inhibition of AKT phosphorylation in human SU-DHL-6 cells at 0.1 to 1 uM incubated for 24 hrs by Western blot analysis; assay type: cell-based; conditions: dose 0.1-1 µM
Pfeiffer = assay: Antiproliferative activity against human Pfeiffer cells assessed as cell growth inhibition incubated for 72 hrs by MTT assay; assay type: functional
[3] = Stability of compound in PBS at pH 7.4 assessed as parent compound remaining measured after 48 hrs by HPLC analysis; assay type: physicochemical; conditions: read-out: Stability
SU-DHL-6 [4] = assay: Inhibition of AKT phosphorylation in human SU-DHL-6 cells at 1 to 10000 nM incubated for 24 hrs by Western blot analysis; assay type: cell-based; conditions: dose 1-10000 nM
SU-DHL-6 [5] = assay: Induction of autophagy in human SU-DHL-6 cells assessed as increase in LC3-II to LC3-I ratio at 1 to 100 nM incubated for 24 hrs by Western blot analysis; assay type: functional, cell-based; conditions: dose 1-100 nM
[6] = biological target: Phosphatidylinositol 4,5-bisphosphate 3-kinase catalytic subunit alpha isoform (Homo sapiens, UniProt P42336); assay: Inhibition of PI3Kalpha (unknown origin) preincubated for 30 mins followed by ATP addition and measured after 1 hrs by ADP-Glo reagent based analysis
[7] = biological target: Phosphatidylinositol 4,5-bisphosphate 3-kinase catalytic subunit beta isoform (Homo sapiens, UniProt P42338); assay: Inhibition of PI3Kbeta (unknown origin) preincubated for 30 mins followed by ATP addition and measured after 1 hrs by ADP-Glo reagent based analysis
[8] = biological target: von Hippel-Lindau disease tumor suppressor/Phosphatidylinositol 4,5-bisphosphate 3-kinase catalytic subunit alpha isoform (Homo sapiens, UniProt P42336+P40337); assay: PROTAC activity at VHL/p110alpha in human SU-DHL-6 cells assessed as induction of p110alpha degradation incubated for 24 hrs by Western blot analysis; assay type: cell-based
[9] = biological target: von Hippel-Lindau disease tumor suppressor/Phosphatidylinositol 4,5-bisphosphate 3-kinase catalytic subunit beta isoform (Homo sapiens, UniProt P42338+P40337); assay: PROTAC activity at VHL/p110beta in human SU-DHL-6 cells assessed as induction of p110beta degradation incubated for 24 hrs by Western blot analysis; assay type: cell-based
SU-DHL-6 [10] = assay: Cell cycle arrest in human SU-DHL-6 cells assessed as increase in G1 phase cells incubated for 24 hrs by PI staining based flow cytometric analysis; assay type: functional; conditions: dose 0.01-1 µM
SU-DHL-6 [11] = assay: Cell cycle arrest in human SU-DHL-6 cells assessed as increase in G1 phase cells at 0.1 uM incubated for 24 hrs by PI staining based flow cytometric analysis; assay type: functional
SU-DHL-6 [12] = assay: Induction of apoptosis in human SU-DHL-6 cells assessed as viable cells at 1 uM incubated for 24 hrs by Annexin V-FITC/PI staining based flow cytometric analysis (reference value: 92.54 %); assay type: functional; conditions: read-out: Activity
SU-DHL-6 [13] = assay: Induction of apoptosis in human SU-DHL-6 cells assessed as early apoptotic cells at 1 uM incubated for 24 hrs by Annexin V-FITC/PI staining based flow cytometric analysis (reference value: 2.32 %); assay type: functional
SU-DHL-6 [14] = assay: Induction of apoptosis in human SU-DHL-6 cells assessed as late apoptotic cells at 1 uM incubated for 24 hrs by Annexin V-FITC/PI staining based flow cytometric analysis (reference value: 4.75 %); assay type: functional
SU-DHL-6 [15] = assay: Induction of apoptosis in human SU-DHL-6 cells assessed as necrotic cells at 1 uM incubated for 24 hrs by Annexin V-FITC/PI staining based flow cytometric analysis (reference value: 0.39 %); assay type: functional
SU-DHL-6 [16] = assay: Induction of apoptosis in human SU-DHL-6 cells assessed as viable cells at 0.01 uM incubated for 24 hrs by Annexin V-FITC/PI staining based flow cytometric analysis (reference value: 92.54 %); assay type: functional; conditions: read-out: Activity
SU-DHL-6 [17] = assay: Induction of apoptosis in human SU-DHL-6 cells assessed as early apoptotic cells at 0.01 uM incubated for 24 hrs by Annexin V-FITC/PI staining based flow cytometric analysis (reference value: 2.32 %); assay type: functional
SU-DHL-6 [18] = assay: Induction of apoptosis in human SU-DHL-6 cells assessed as late apoptotic cells at 0.01 uM incubated for 24 hrs by Annexin V-FITC/PI staining based flow cytometric analysis (reference value: 4.75 %); assay type: functional
SU-DHL-6 [19] = assay: Induction of apoptosis in human SU-DHL-6 cells assessed as necrotic cells at 0.01 uM incubated for 24 hrs by Annexin V-FITC/PI staining based flow cytometric analysis (reference value: 0.39 %); assay type: functional
SU-DHL-6 [20] = assay: Induction of apoptosis in human SU-DHL-6 cells assessed as viable cells at 0.1 uM incubated for 24 hrs by Annexin V-FITC/PI staining based flow cytometric analysis (reference value: 92.54 %); assay type: functional; conditions: read-out: Activity
SU-DHL-6 [21] = assay: Induction of apoptosis in human SU-DHL-6 cells assessed as early apoptotic cells at 0.1 uM incubated for 24 hrs by Annexin V-FITC/PI staining based flow cytometric analysis (reference value: 2.32 %); assay type: functional
SU-DHL-6 [22] = assay: Induction of apoptosis in human SU-DHL-6 cells assessed as late apoptotic cells at 0.1 uM incubated for 24 hrs by Annexin V-FITC/PI staining based flow cytometric analysis (reference value: 4.75 %); assay type: functional
SU-DHL-6 [23] = assay: Induction of apoptosis in human SU-DHL-6 cells assessed as necrotic cells at 0.1 uM incubated for 24 hrs by Annexin V-FITC/PI staining based flow cytometric analysis (reference value: 0.39 %); assay type: functional
SU-DHL-6 [24] = assay: Antitumor activity against human SU-DHL-6 cells xenografted in male nude mouse model assessed as tumor growth inhibition at 2 mg/kg, ip administered for 21 days relative to control; assay type: functional; conditions: SU-DHL-6, 504 h, time 21 day, read-out: TGI
SU-DHL-6 [25] = assay: Antitumor activity against human SU-DHL-6 cells xenografted in male nude mouse model assessed as tumor growth inhibition at 10 mg/kg, ip administered for 21 days relative to control; assay type: functional; conditions: SU-DHL-6, 504 h, time 21 day, read-out: TGI
[26] = Toxicity in male nude mouse xenografted with human SU-DHL-6 cells assessed as animal death at 2 to 10 mg/kg, ip administered for 21 days; assay type: organism-based; conditions: in vivo, 504 h, dose 2-10 mg/kg, time 21 day
[27] = Toxicity in male nude mouse xenografted with human SU-DHL-6 cells assessed as effect on body weight at 2 to 10 mg/kg, ip administered for 21 days; assay type: organism-based; conditions: in vivo, 504 h, dose 2-10 mg/kg, time 21 day
Mus musculus = assay: In vivo inhibition of AKT phosphorylation in male nude mouse xenografted with human SU-DHL-6 cells assessed as reduction in p-AKT expression level in tumor administered intraperitoneally for 21 days by Western blot analysis; assay type: functional, organism-based; conditions: dose 2-10 mg/kg, route ip, time 21.0 day
SU-DHL-6 [28] = assay: Antitumor activity against human SU-DHL-6 cells xenografted in male nude mouse model assessed as reduction in Ki67 expression in tumor at 2 to 10 mg/kg, ip administered for 21 days by immunohistochemical analysis; assay type: functional, organism-based; conditions: dose 2-10 mg/kg, time 21.0 day
[29] = Toxicity in male nude mouse xenografted with human SU-DHL-6 cells assessed as effect on heart morphology at 2 to 10 mg/kg, ip administered for 21 days by H and E staining based analysis; assay type: organism-based; conditions: in vivo, 504 h, dose 2-10 mg/kg, time 21 day
[30] = Toxicity in male nude mouse xenografted with human SU-DHL-6 cells assessed as effect on liver morphology at 2 to 10 mg/kg, ip administered for 21 days by H and E staining based analysis; assay type: organism-based; conditions: in vivo, 504 h, dose 2-10 mg/kg, time 21 day
[31] = Toxicity in male nude mouse xenografted with human SU-DHL-6 cells assessed as effect on spleen morphology at 2 to 10 mg/kg, ip administered for 21 days by H and E staining based analysis; assay type: organism-based; conditions: in vivo, 504 h, dose 2-10 mg/kg, time 21 day
[32] = Toxicity in male nude mouse xenografted with human SU-DHL-6 cells assessed as effect on kidney morphology at 2 to 10 mg/kg, ip administered for 21 days by H and E staining based analysis; assay type: organism-based; conditions: in vivo, 504 h, dose 2-10 mg/kg, time 21 day

Sequence of von Hippel-Lindau disease tumor suppressor/Phosphatidylinositol 4,5-bisphosphate 3-kinase catalytic subunit alpha isoform (P42336 whole entry, canonical isoform): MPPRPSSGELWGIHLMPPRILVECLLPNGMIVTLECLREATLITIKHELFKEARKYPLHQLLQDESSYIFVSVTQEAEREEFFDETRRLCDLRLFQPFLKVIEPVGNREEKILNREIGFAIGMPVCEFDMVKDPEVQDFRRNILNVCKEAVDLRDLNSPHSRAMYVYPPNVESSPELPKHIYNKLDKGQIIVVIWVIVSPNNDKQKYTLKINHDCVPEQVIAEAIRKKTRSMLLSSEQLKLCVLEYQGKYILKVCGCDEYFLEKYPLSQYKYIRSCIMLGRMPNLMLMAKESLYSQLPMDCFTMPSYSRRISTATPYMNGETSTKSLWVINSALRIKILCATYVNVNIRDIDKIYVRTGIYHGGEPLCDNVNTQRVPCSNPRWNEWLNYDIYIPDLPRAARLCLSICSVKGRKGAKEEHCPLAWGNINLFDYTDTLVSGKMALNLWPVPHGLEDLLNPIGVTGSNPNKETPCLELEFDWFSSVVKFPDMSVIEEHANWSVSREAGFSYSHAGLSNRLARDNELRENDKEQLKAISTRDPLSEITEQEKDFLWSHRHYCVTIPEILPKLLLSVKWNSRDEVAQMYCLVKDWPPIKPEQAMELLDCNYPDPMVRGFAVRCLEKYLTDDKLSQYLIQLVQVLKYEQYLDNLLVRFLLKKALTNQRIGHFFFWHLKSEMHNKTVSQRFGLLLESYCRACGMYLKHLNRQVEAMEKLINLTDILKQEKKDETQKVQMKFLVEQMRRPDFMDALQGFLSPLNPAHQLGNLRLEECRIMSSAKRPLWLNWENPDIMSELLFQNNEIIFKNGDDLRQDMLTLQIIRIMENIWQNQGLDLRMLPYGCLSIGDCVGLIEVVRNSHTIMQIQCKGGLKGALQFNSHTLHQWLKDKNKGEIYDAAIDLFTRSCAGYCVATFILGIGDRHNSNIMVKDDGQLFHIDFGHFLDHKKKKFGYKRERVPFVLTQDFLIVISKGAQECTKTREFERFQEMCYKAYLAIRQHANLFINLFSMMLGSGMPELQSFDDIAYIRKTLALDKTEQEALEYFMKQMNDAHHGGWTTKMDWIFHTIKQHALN
Sequence of von Hippel-Lindau disease tumor suppressor/Phosphatidylinositol 4,5-bisphosphate 3-kinase catalytic subunit alpha isoform (P40337 whole entry, canonical isoform): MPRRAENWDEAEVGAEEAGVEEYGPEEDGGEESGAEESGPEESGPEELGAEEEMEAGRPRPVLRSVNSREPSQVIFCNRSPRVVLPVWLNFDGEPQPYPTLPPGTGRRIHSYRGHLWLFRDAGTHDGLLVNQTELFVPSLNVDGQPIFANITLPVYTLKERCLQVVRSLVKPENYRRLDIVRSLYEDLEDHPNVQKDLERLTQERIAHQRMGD
Sequence of Phosphatidylinositol 4,5-bisphosphate 3-kinase catalytic subunit alpha isoform (P42336 whole entry, canonical isoform): as the sequence (P42336 whole entry, canonical isoform) above
Sequence of von Hippel-Lindau disease tumor suppressor/Phosphatidylinositol 4,5-bisphosphate 3-kinase catalytic subunit beta isoform (P42338 whole entry, canonical isoform): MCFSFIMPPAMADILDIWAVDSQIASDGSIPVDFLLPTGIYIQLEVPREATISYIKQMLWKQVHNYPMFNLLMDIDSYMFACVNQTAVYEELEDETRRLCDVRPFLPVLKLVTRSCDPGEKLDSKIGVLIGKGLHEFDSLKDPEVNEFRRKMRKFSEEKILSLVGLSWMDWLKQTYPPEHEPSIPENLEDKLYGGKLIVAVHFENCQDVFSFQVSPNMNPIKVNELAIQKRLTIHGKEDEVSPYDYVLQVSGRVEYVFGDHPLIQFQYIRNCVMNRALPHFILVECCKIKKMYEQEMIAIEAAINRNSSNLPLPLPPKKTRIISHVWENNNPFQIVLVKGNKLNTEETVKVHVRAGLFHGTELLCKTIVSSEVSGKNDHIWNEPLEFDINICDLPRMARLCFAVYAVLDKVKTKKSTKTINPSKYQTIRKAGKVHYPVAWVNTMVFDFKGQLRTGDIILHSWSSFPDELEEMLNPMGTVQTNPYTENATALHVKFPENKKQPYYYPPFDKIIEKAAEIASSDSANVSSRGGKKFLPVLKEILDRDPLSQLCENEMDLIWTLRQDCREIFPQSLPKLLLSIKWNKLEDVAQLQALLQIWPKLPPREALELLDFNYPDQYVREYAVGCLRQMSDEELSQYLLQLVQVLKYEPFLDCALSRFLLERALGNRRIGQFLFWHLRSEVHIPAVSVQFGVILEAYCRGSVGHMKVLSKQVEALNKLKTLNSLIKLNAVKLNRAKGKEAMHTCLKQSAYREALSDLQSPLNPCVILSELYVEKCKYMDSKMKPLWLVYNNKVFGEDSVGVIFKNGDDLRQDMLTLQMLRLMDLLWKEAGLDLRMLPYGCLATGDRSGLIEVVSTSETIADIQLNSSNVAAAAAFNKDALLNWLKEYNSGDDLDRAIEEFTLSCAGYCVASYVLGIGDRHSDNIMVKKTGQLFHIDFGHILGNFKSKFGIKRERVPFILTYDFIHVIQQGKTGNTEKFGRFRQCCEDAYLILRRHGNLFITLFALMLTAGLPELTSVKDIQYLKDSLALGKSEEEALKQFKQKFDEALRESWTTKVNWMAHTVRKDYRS
Sequence of von Hippel-Lindau disease tumor suppressor/Phosphatidylinositol 4,5-bisphosphate 3-kinase catalytic subunit beta isoform (P40337 whole entry, canonical isoform): as the sequence (P40337 whole entry, canonical isoform) above
Sequence of Phosphatidylinositol 4,5-bisphosphate 3-kinase catalytic subunit beta isoform (P42338 whole entry, canonical isoform): as the sequence (P42338 whole entry, canonical isoform) above

Q: With `COc1ncc(-c2ccc3ncnc(N[C@H]4CCN(C(=O)C5CCN(CCCCCCCCCC(=O)N[C@H](C(=O)N6C[C@H](O)C[C@H]6C(=O)N[C@@H](C)c6ccc(-c7scnc7C)cc6)C(C)(C)C)CC5)C4)c3n2)cc1C(=O)Oc1ccccc1` as the compound, how does the GI50 (SU-DHL-6 [1]) read?
A: Its GI50 is 170 nM.

Q: What about the inhibition (SU-DHL-6 [2]) of the same compound?
A: The inhibition was “Active”.

Q: And the GI50 (Pfeiffer)?
A: The GI50 was 350 nM.

Q: What about the remaining at 48 h [3] of the same compound?
A: The remaining at 48 h was over 80%.

Q: What about the inhibition (SU-DHL-6 [4]) of the same compound?
A: The inhibition was “Active”.

Q: What about the Activity (SU-DHL-6 [5]) of the same compound?
A: Its Activity is “Active”.

Q: What about the IC50 [6] of the same compound?
A: Its IC50 is 589 nM.

Q: What about the IC50 [7] of the same compound?
A: The IC50 was over 10000 nM.

Q: And the DC50 [8]?
A: Its DC50 is over 1000 nM.

Q: And the DC50 [9]?
A: Its DC50 is over 1000 nM.

Q: What about the Activity (SU-DHL-6 [10]) of the same compound?
A: The Activity was “Dose-dependent-effect”.

Q: And the Activity (SU-DHL-6 [11])?
A: Its Activity is “Active; More Potent Than 10 Um Idelalisib”.

Q: What about the viability at 1 µM (SU-DHL-6 [12]) of the same compound?
A: The viability at 1 µM was 33.9%.

Q: What about the Activity (SU-DHL-6 [13]) of the same compound?
A: The Activity was 14.65%.

Q: What about the Activity (SU-DHL-6 [14]) of the same compound?
A: The Activity was 50.74%.

Q: What about the Activity (SU-DHL-6 [15]) of the same compound?
A: Its Activity is 0.76%.

Q: What about the viability at 0.01 µM (SU-DHL-6 [16]) of the same compound?
A: The viability at 0.01 µM was 91.7%.

Q: What about the Activity (SU-DHL-6 [17]) of the same compound?
A: Its Activity is 0.61%.

Q: What about the Activity (SU-DHL-6 [18]) of the same compound?
A: The Activity was 6.92%.

Q: And the Activity (SU-DHL-6 [19])?
A: Its Activity is 0.51%.

Q: What about the viability at 0.1 µM (SU-DHL-6 [20]) of the same compound?
A: Its viability at 0.1 µM is 91.5%.

Q: And the Activity (SU-DHL-6 [21])?
A: The Activity was 0.75%.

Q: And the Activity (SU-DHL-6 [22])?
A: The Activity was 7.11%.

Q: And the Activity (SU-DHL-6 [23])?
A: The Activity was 0.65%.

Q: And the inhibition in vivo at 2 mg/kg (SU-DHL-6 [24])?
A: Its inhibition in vivo at 2 mg/kg is 59.1%.

Q: And the inhibition in vivo at 10 mg/kg (SU-DHL-6 [25])?
A: The inhibition in vivo at 10 mg/kg was 73.3%.

Q: What about the Activity [26] of the same compound?
A: Its Activity is “Non-toxic”.

Q: And the Activity [27]?
A: The Activity was “Non-toxic”.

Q: And the inhibition (Mus musculus)?
A: Its inhibition is “Dose-dependent-effect”.

Q: What about the Activity (SU-DHL-6 [28]) of the same compound?
A: The Activity was “Active”.

Q: And the Activity [29]?
A: The Activity was “Non-toxic”.

Q: And the Activity [30]?
A: Its Activity is “Non-toxic”.

Q: And the Activity [31]?
A: The Activity was “Non-toxic”.

Q: And the Activity [32]?
A: Its Activity is “Non-toxic”.
